Reference: paper PMC3578829, “A Small Molecule (Pluripotin) as a Tool for Studying Cancer Stem Cell Biology: Proof of Concept” (PLoS ONE, 2013)

Columns and labels:
HCT-15 [1] = experiment: Limiting dilution tumorigenicity, s.c. xenograft without protein support; assay type: in vivo, NOD.SCID mice; settings: HCT-15 treated 5 days with 0.1 µM SC-1
Protocol: (§1) Five day exposures were conducted.
(§2) Six week old female NOD.SCID mice were randomly assigned to each of 20 treatment arms (n = 5/group). Treated and control colon tumor lines were enzymatically harvested and counted prior to dilution in RPMI 1640 (at 10, 100, 1,000, 10,000 cells/inoculum) for subcutaneous injection into the axillary region using a volume of […]. Positive control groups were established such that tumor formation occurred in all mice in approximately one week thus confirming that all tumor lines studied were tumorigenic. Cell inocula for the positive control groups ranged from 1×10^6 to 2.5×10^6. Cell viability of the cell stocks was assessed by trypan blue exclusion prior to dilution for injection and was routinely found to be >95%. Tumor formation was monitored weekly using caliper measurements and the tumor mass was calculated as weight in mg = 1/2×(tumor length)×(tumor width)^2. All experiments were terminated at 120 days or when tumor weight exceeded 2000 mg for any individual mouse. In selected studies, tumor cells were resuspended in Matrigel (50% concentration, BD Biosciences) prior to injection.

KM12 = experiment: as above; assay type: in vivo, NOD.SCID mice; settings: KM12 treated 5 days with 0.1 µM SC-1
Protocol: as §1, §2

HCT-15 [2] = experiment: Limiting dilution tumorigenicity with Matrigel co-injection; assay type: in vivo, NOD.SCID mice; design: key to Tumorigenicity: Y indicates increased tumor formation or increased time to appearance or both.; Y ^%: Y indicates increased tumor formation when Matrigel was co-injected
Excerpt: To explore the lack of a tumorigenic effect for SC-1 treated HCT-15 cells, the limiting dilution tumorigenicity assay was repeated with the addition of Matrigel to the injected cells (10, 100, 1000, and 10000 cells per injection). A protein support such as Matrigel may provide anchoring, a substrate for angiogenesis, and growth factors. […] For SC-1 treated cells co-injected with Matrigel, 5 of 5 mice had tumor formation over the 99 day observation period at the 10 cell inoculum (Figure 1).
as §2

COLO 205 = experiment: Sphere formation assay (5% FBS); assay type: cell-based; design: key: Y indicates the presence of spheres following SC-1 treatment
Protocol: (§3) The 7 colon tumor lines were seeded in […] tissue culture treated dishes (Falcon) at low density (62,500 cells/ml) in complete media containing 5% FBS one day prior to addition of 0.1 µM SC-1 (final cell concentration 31,250 cells/ml). Photomicrographs were prepared on day 1 and day 5 following compound treatment utilizing a Zeiss XM inverted microscope and CCD cooled-camera imaging system. Nonadherent spheres were defined as floating, circular structures with well defined borders. Occasionally, exceptionally large spheres re-adhered to the tissue culture surface. Aggregates of floating cells or grape-like clusters were not considered spheres.

HCT-116 = experiment: Sphere formation assay (5% FBS); assay type: cell-based; design: key: Y indicates the presence of spheres following SC-1 treatment
Protocol: as §3

HT29 = experiment: Sphere formation assay (5% FBS); assay type: cell-based; design: key: Y indicates the presence of spheres following SC-1 treatment
Protocol: as §3

colon tumor lines [3] = experiment: FACS analysis of CD326 and CD166, all tumor lines; assay type: cell-based; settings: any of the tumor lines; five days of SC-1 treatment
Excerpt: A BD FACsAria (BD Biosciences, San Jose, CA) was utilized for FACS analysis according to standard procedures. The instrument was equipped with a 488 nm 100 mW blue laser, a 638 nm 30 mW red laser, and a 405 nm 50 mW violet laser. The software package Diva 5.0 (BD Biosciences) was used for collection and analysis of data. The alignment of the three lasers in the flow cell was verified prior to running tumor cell samples by running Rainbow Beads (Spherotech). The six colors being used in the analysis were then compensated to account for spectral overlap emitted by the fluorochromes within each laser as well as across the lasers using a semi-automated process. […] The data was then run through the Diva software compensation matrices and the amount of “spectral bleed” from other fluorochromes into the fluorochrome of interest’s channel was determined and automatically compensated.
Treated and untreated cells (1×10^6 cells/condition) were harvested with trypsin EDTA (Invitrogen), washed, and then labeled with a six antibody cocktail (antibodies against the following epitopes: CD44, CD24, CD133, CD326, CD166, and P-glycoprotein in PBS without calcium and magnesium supplemented with 2% FBS) or appropriate isotype control antibodies. […] The specific amounts needed for each labeled antibody were determined through titration studies. […]

OCT4 = experiment: Immunoblotting of OCT4 in HT29; assay type: cell-based; settings: 0.1 µM SC-1
Protocol: Standard protein electrophoretic techniques were followed using previously published protocols. For these studies, the colon lines were cultured for 5 days with and without treatments, harvested with trypsin (0.25% trypsin 0.5 mM EDTA, Invitrogen), counted and lysed with a whole cell lysis buffer (10 mM Tris, 1.0 mM EDTA, 50 mM NaCl, 0.5% deoxycholate, 0.5% NP-40, 0.5% SDS, 1.0 mM PMSF, and aprotonin and a cocktail of phosphatase and protease inhibitors). The whole cell lysate was heated to 100°C for 10 min and then fractionated (1000 g, 10 min, 4°C). Protein concentrations were measured with the Pierce BCA Protein Assay. Twenty to 40 µg of protein lysate per lane were loaded onto 10% SDS polyacrylamide gels (Ready-Gels, Biorad) with Laemmli buffer. For immunoblotting, the primary antibodies were diluted in Tween/Tris wash buffer (0.1 mM Tris-HCl pH 7.5, 2.5% Tween-20, 150 mM NaCl) and 5% BSA or nonfat dry milk and incubated overnight at 4°C. Visualization of specific bands was accomplished with an alkaline phosphatase-labeled secondary anti-immunoglobulin antibody and the ECF Chemifluorescent reagent (GE Amersham). Pixel intensity of the imaged bands was measured using STORM (GE Amersham) and Image Quant Software. Normalization for loading was accomplished by reprobing with an anti-actin antibody, quantification of pixel intensity and data normalization.

colon tumor lines [4] = settings: five day exposure to 0.1 µM SC-1
Protocol: In all experiments, each tumor line was cultured in 60 mm^2 tissue culture treated dishes at an initial concentration of 62,500/ml (total 4 ml) before addition of 0.1 µM SC-1 or an equivalent amount of diluent (DMS0) the next day. Five day exposures were conducted. The final concentration utilized for treatment for all tumor lines was determined by evaluating a range of SC-1 concentrations (0.01 to 10 µM) for sphere formation and any cytotoxic effects in the HCT-116 tumor line.
*Each colon cell line was seeded on day 0 with 0.25 x 10^6 cell/60 mm^2 Petri dish. Compound (0.1 µM) was added on day 1 and cells were enzymatically harvested 5 days later.

## Cc1cc(Nc2ncc3c(n2)N(C)C(=O)N(c2cc(NC(=O)c4cccc(C(F)(F)F)c4)ccc2C)C3)n(C)n1 [SC-1]
HCT-15 [1]; 100 cells inoculated s.c.
  Tumor take rate: 0/5
HCT-15 [1]; 1000 cells inoculated s.c.
  Tumor take rate: 0/5
HCT-15 [1]; 10000 cells inoculated s.c.
  Tumor take rate: 0/5
KM12; 100 cells inoculated s.c.
  Tumor take rate: 0/5
KM12; 1000 cells inoculated s.c.
  Tumor take rate: 0/5
KM12; 10000 cells inoculated s.c.
  Tumor take rate: 1/5
HCT-15 [2]; HCT-15, 100, 1000, and 10000 cells per injection with Matrigel
  Tumor formation: tumors formed in all mice
HCT-15 [2]; HCT-15, Matrigel co-injected, summary of SC-1 effects
  Tumorigenicity: Y ^%
HCT-15 [2]; HCT-15 SC-1 treated, 10 cell inoculum co-injected with Matrigel, 99 day observation
  Tumor formation (take rate): 5 of 5
COLO 205; 0.1 µM SC-1, 5% FBS
  Sphere formation: sphere formation occurred in a fraction
COLO 205; summary of SC-1 effects
  Sphere formation: Y
HCT-116; 0.1 µM SC-1, 5% FBS, 24 hrs
  Sphere formation: uniform nonadherent spheres with well-defined borders formed
HCT-116; summary of SC-1 effects
  Sphere formation: Y
HT29; 0.1 µM SC-1, 5% FBS, 24 hrs
  Sphere formation: uniform nonadherent spheres with well-defined borders formed
HT29; summary of SC-1 effects
  Sphere formation: Y
Colon tumor lines [3]
  CD326 and CD166 surface expression: No changes
OCT4
  OCT4 protein expression: increased
Colon tumor lines [4]
  Cell number after in vitro SC-1 treatment vs control: statistically significant decrease in cell number
